Measurements reported in patent publication US10065990B2, “Cyclic peptide compound, and preparation method, pharmaceutical composition and use thereof” (HANGZHOU GUANYU BIO-MEDICAL CO., LTD, priority 2013, dated 2018).
Where two headings read alike, the source gives them in different places.

Assays:
Test in all cases: MTT cancer cell growth inhibition
Format in all cases: cell-based
[1] = tested on: SGC-7901 (human gastric cancer cells); conditions: Homo sapiens, SGC-7901, 72 h, MTT, 72 hours incubation, SGC-7901 cells; read-out: GI50 SGC-7901
Procedure, shortened: (§1)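 72 h exposure, final drug 10^−5–10^−10 M, triplicate wells; 1500 cells/well plated the day before; medium DMEM or 1640 + 10% FBS; 37° C./5% CO2. MTT (5 mg/ml stock) 4 h, DMSO solubilisation, A570 → % viability → GI50.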

[2] = tested on: lncap (prostate cancer cells); conditions: Homo sapiens, LNCaP, 72 h, MTT
Procedure, shortened: as §1

[3] = tested on: A549 (human lung cancer cells); conditions: Homo sapiens, A549, 72 h, MTT
Procedure, shortened: as §1

[4] = tested on: KBM-5 (human chronic myelogenous leukemia); conditions: Homo sapiens, KBM5, 72 h, MTT, 72 hours incubation, KBM-5 cells; read-out: GI50 KBM-5
Procedure, shortened: as §1

[5] = tested on: PANC-1 (Pac-1, human pancreatic cancer cells); conditions: Homo sapiens, PANC-1, 72 h, MTT
Procedure, shortened: as §1

[6] = tested on: MDA-MB-231 (breast cancer cells); conditions: Homo sapiens, MDA-MB-231, 72 h, read-out: GI50 MDA-MB-231, MTT, 72 hours incubation, MDA-MB-231 cells
Procedure, shortened: as §1

[7] = tested on: MCF-7 (human breast cancer cells); conditions: Homo sapiens, MCF7, 72 h
Procedure, shortened: as §1

[8] = tested on: DU145 (human prostate cancer cells); conditions: Homo sapiens, DU-145, 72 h, MTT
Procedure, shortened: as §1

[9] = tested on: MOLT-4 (human acute lymphoblastic leukemia cells); conditions: Homo sapiens, MOLT-4, 72 h, MTT
Procedure, shortened: as §1

[10] = tested on: Huh-7 (human hepatoma cells); conditions: Homo sapiens, Huh-7, 72 h, MTT, 72 hours incubation, Huh-7 cells; read-out: GI50 Huh-7
Procedure, shortened: as §1

[11] = tested on: U937 (human leukemia cells); conditions: Homo sapiens, U-937, 72 h, MTT
Procedure, shortened: as §1

[12] = tested on: KBM5-T315I (human chronic myelogenous leukemia); conditions: Homo sapiens, 72 h, MTT, 72 hours incubation, KBM5-T315I cells; read-out: GI50 KBM5-T315I
Procedure, shortened: as §1

[13] = tested on: Hela (human cervical cancer cells); conditions: Homo sapiens, HeLa, 72 h, MTT
Procedure, shortened: as §1

[14] = tested on: H1975 (non-small cell lung adenocarcinoma); conditions: Homo sapiens, NCI-H1975, 72 h, MTT, 72 hours incubation, H1975 cells; read-out: GI50 H1975
Procedure, shortened: as §1

[15] = tested on: BGC-823 (human gastric cancer cells); conditions: Homo sapiens, BGC-823, 72 h, MTT
Procedure, shortened: as §1

[16] = lncap cells, 72 hours incubation, read-out: GI50 lnca
[17] = A549 cells, 72 hours incubation, read-out: GI50 A54
[18] = PANC-1 cells, 72 hours incubation, read-out: GI50 PAN
[19] = MCF-7 cells, 72 hours incubation, read-out: GI50 MCF
[20] = DU145 cells, 72 hours incubation, read-out: GI50 Du1
[21] = MOLT-4 cells, 72 hours incubation, read-out: GI50 Mol
[22] = U937 cells, 72 hours incubation, read-out: GI50 U93
[23] = Hela cells, 72 hours incubation, read-out: GI50 Hela
[24] = BGC-823 cells, 72 hours incubation, read-out: GI50 BG
[25] = 72 hours incubation, read-out: GI50 lnca
[26] = 72 hours incubation, read-out: GI50 A54
[27] = 72 hours incubation, read-out: GI50 PAN
[28] = 72 hours incubation, read-out: GI50 MCF
[29] = 72 hours incubation, read-out: GI50 Du1
[30] = 72 hours incubation, read-out: GI50 Mol
[31] = 72 hours incubation, read-out: GI50 U93
[32] = 72 hours incubation, read-out: GI50 Hela
[33] = 72 hours incubation, read-out: GI50 BG

GI50 [1] | GI50 [2, 16] | GI50 [3, 17] | GI50 [4] | GI50 [5, 18] | GI50 [6] | GI50 [7, 19] | GI50 [8, 20] | GI50 [10] | GI50 [12] | GI50 [14] | GI50 [2, 25] | GI50 [3, 26] | GI50 [5, 27] | GI50 [7, 28] | GI50 [8, 29] | GI50 [9, 30] | GI50 [11, 31] | GI50 [13, 32] | GI50 [15, 33] | SMILES | other results
45 nM | 50 nM | 30 nM | 23 nM | 50 nM | 78 nM | 40 nM | 40 nM | 57 nM | 26 nM | 26 nM | – | – | – | – | – | – | – | – | – | C/C=C1\NC(=O)c2nc(ccc2SC)CNC(=O)C[C@@H](/C=C/CCSC(=O)CCCCCCC)OC(=O)[C@H](C(C)C)NC1=O [Compound 147] | GI50 [9, 21]: 80 nM; GI50 [11, 22]: 30 nM; GI50 [13, 23]: 50 nM; GI50 [15, 24]: 50 nM
51 nM | – | – | 94 nM | – | 26 nM | – | – | 26 nM | 34 nM | 34 nM | 20 nM | 50 nM | 70 nM | 30 nM | 10 nM | 20 nM | 30 nM | 90 nM | 30 nM | C/C=C1\NC(=O)c2cc(F)cc(n2)CNC(=O)C[C@@H](/C=C/CCSC(C)=O)OC(=O)[C@H](CCCCNC(=O)OCC2c3ccccc3-c3ccccc32)NC1=O [Compound 76] | –
57 nM | – | – | 91 nM | – | 35 nM | – | – | 35 nM | 47 nM | 37 nM | 30 nM | 50 nM | 50 nM | 40 nM | 30 nM | 30 nM | 30 nM | 90 nM | 40 nM | C/C=C1\NC(=O)c2cc(F)cc(n2)CNC(=O)C[C@@H](/C=C/CCSC(=O)CC)OC(=O)[C@H](C(C)C)NC1=O [Compound 46] | –
33 nM | 310 nM | 70 nM | 36 nM | 50 nM | 52 nM | 170 nM | 40 nM | 89 nM | 32 nM | 32 nM | – | – | – | – | – | – | – | – | – | C/C=C1\NC(=O)c2ccc(SC)c(n2)CNC(=O)C[C@@H](/C=C/CCSC(=O)CCCCCCC)OC(=O)[C@H](Cc2ccccc2)NC1=O [Compound 191] | GI50 [9, 21]: 50 nM; GI50 [11, 22]: 30 nM; GI50 [13, 23]: 130 nM; GI50 [15, 24]: 100 nM
64 nM | – | – | 99 nM | – | 34 nM | – | – | 34 nM | 63 nM | 43 nM | 30 nM | 60 nM | 50 nM | 60 nM | 20 nM | 30 nM | 40 nM | 90 nM | 40 nM | C/C=C1\NC(=O)c2nc(ccc2F)CNC(=O)C[C@@H](/C=C/CCSC(=O)CCCCCCC)OC(=O)[C@H](CC)NC1=O [Example 54] | –
46 nM | – | – | 91 nM | – | 31 nM | – | – | 31 nM | 64 nM | 26 nM | 30 nM | 40 nM | 80 nM | 60 nM | 10 nM | 30 nM | 20 nM | 90 nM | 60 nM | C/C=C1\NC(=O)c2ccc(F)c(n2)CNC(=O)C[C@@H](/C=C/CCSC(=O)CCCCCCC)OC(=O)[C@H](C)NC1=O [Example 62] | –
51 nM | – | – | 82 nM | – | 93 nM | – | – | 43 nM | 19 nM | 39 nM | 82100 nM | 4200 nM | 4100 nM | 49500 nM | 6100 nM | 700 nM | 17900 nM | 21000 nM | 2100 nM | C/C=C1\NC(=O)c2cccc(n2)CNC(=O)C[C@@H](/C=C/CCSC(C)=O)OC(=O)[C@H](CCCCNC(=O)OCC2c3ccccc3-c3ccccc32)NC1=O [Compound 16] | –
51 nM | – | – | 69 nM | – | 39 nM | – | – | 39 nM | 82 nM | 61 nM | 30 nM | 50 nM | 40 nM | 80 nM | 20 nM | 30 nM | 60 nM | 60 nM | 60 nM | C/C=C1\NC(=O)c2cc(F)cc(n2)CNC(=O)C[C@@H](/C=C/CCSC(C)=O)OC(=O)[C@H](CC)NC1=O [Compound 58] | –
59 nM | – | – | 89 nM | – | 29 nM | – | – | 29 nM | 73 nM | 52 nM | 20 nM | 50 nM | 80 nM | 70 nM | 30 nM | 20 nM | 50 nM | 80 nM | 50 nM | C/C=C1\NC(=O)c2cc(F)cc(n2)CNC(=O)C[C@@H](/C=C/CCSC(=O)CCCCCCC)OC(=O)[C@H](CC)NC1=O [Compound 55] | –
26 nM | 30 nM | 50 nM | 15 nM | 100 nM | 16 nM | 80 nM | 50 nM | 11 nM | 96 nM | 57 nM | – | – | – | – | – | – | – | – | – | C/C=C1\NC(=O)c2nc(ccc2SCCC)CNC(=O)C[C@@H](/C=C/CCSC(=O)CCCCCCC)OC(=O)[C@H](CC)NC1=O [Compound 174] | GI50 [9, 21]: 20 nM; GI50 [11, 22]: 70 nM; GI50 [13, 23]: 20 nM; GI50 [15, 24]: 30 nM
36 nM | 990 nM | 120 nM | 23 nM | 770 nM | 35 nM | 330 nM | 950 nM | 92 nM | 12 nM | 73 nM | – | – | – | – | – | – | – | – | – | C=C1NC(=O)c2cccc(n2)CNC(=O)C[C@@H](/C=C/CCSC(=O)CCCCCCC)OC(=O)[C@H](C(C)C)NC1=O [Compound 244] | GI50 ([2]; 72 hours, present invention, read-out: GI50 lncap, a): 990 nM; GI50 ([3]; 72 hours, present invention, read-out: GI50 A549, a): 120 nM; GI50 ([5]; 72 hours, present invention, read-out: GI50 PANC-1, a): 770 nM; GI50 ([7]; 72 hours, present invention, read-out: GI50 MCF7, a): 330 nM; GI50 ([8]; 72 hours, present invention, read-out: GI50 Du145, a): 950 nM; GI50 [9, 21]: 110 nM; GI50 ([9]; 72 hours, present invention, read-out: GI50 Molt-4, a): 110 nM; GI50 ([11]; 72 hours, present invention, read-out: GI50 U937, a): 890 nM; GI50 [11, 22]: 890 nM; GI50 ([13]; 72 hours, present invention, read-out: GI50 Hela, a): 8 nM; GI50 [15, 24]: 390 nM; GI50 ([15]; 72 hours, present invention, read-out: GI50 BGC823, a): 390 nM
63 nM | – | – | 61 nM | – | 96 nM | – | – | 72 nM | 33 nM | 35 nM | 5100 nM | 320 nM | 10100 nM | 1900 nM | 1980 nM | 130 nM | 20200 nM | 10 nM | 1100 nM | CC(=O)SCC/C=C/[C@@H]1CC(=O)NCc2cccc(n2)C(=O)NC(=C(C)C)C(=O)N[C@@H](C(C)C)C(=O)O1 [Compound 20] | –
